Usually pEC50 stands for the EC50 on a negative log10 scale, so that one unit is a factor of ten.

pEC50: −log10 of the molar value.

Our source for the EC50 values is patent publication US20180327396A1, “NOVEL PYRIDINE DERIVATIVES” (Hoffmann-La Roche Inc., priority 2014, published 2018).

T1 sequence (P34972 whole entry): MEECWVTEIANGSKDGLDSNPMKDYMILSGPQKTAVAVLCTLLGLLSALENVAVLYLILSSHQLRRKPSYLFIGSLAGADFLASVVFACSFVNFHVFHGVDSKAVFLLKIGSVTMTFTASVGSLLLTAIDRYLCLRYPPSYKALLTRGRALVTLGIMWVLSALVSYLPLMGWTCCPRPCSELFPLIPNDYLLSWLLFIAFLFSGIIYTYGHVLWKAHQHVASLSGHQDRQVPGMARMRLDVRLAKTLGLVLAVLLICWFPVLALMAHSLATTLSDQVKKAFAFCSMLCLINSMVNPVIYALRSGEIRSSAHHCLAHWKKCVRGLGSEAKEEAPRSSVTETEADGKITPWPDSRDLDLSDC

The first assay addresses T1, human CB2 receptors (Homo sapiens, UniProt P34972).
T1 construct: expressed in transfected cells; host or cells: CHO cells
Nature of the assay: cAMP assay. In kind it is cell-based.
Settings: not given
As to the method: CHO cells expressing human CB1 or CB2 receptors are seeded 17-24 hours prior to the experiment 50.000 cells per well in a black 96 well plate with flat clear bottom (Corning Costar #3904) in DMEM (Invitrogen No. 31331), 1× HT supplement, with 10% fetal calf serum and incubated at 5% CO2 and 37° C. in a humidified incubator. The growth medium was exchanged with Krebs Ringer Bicarbonate buffer with 1 mM IBMX and incubated at 30° C. for 30 min. Compounds were added to a final assay volume of 100 μl and incubated for 30 min at 30° C. Using the cAMP-Nano-TRF detection kit the assay (Roche Diagnostics) was stopped by the addition of 50 μl lysis reagent (Tris, NaCl, 1.5% Triton X100, 2.5% NP40, 10% NaN3) and 50 μl detection solutions (20 μM mAb Alexa700-cAMP 1:1, and 48 μM Ruthenium-2-AHA-cAMP) and shaken for 2 h at room temperature. The time-resolved energy transfer is measured by a TRF reader (Evotec Technologies GmbH), equipped with a ND:YAG laser as excitation source. The plate is measured twice with the excitation at 355 nm and at the emission with a delay of 100 ns and a gate of 100 ns, total exposure time 10 s at 730 (bandwidth 30 nm) or 645 nm (bandwidth 75 nm), respectively. The FRET signal is calculated as follows: FRET=T730−Alexa730−P(T645−B645) with P=Ru730−B730/Ru645−B645, where T730 is the test well measured at […], T645 is the test well measured at 645 nm, B730 and B645 are the buffer controls at 730 nm and 645 nm, respectively. cAMP content is determined from the function of a standard curve spanning from 10 μM to 0.13 nM cAMP.
EC50 values were determined using Activity Base analysis (ID Business Solution, Limited). The EC50 values for a wide range of cannabinoid agonists generated from this assay for reference compounds were in agreement with the values published in the scientific literature.
(In general: Cyclic AMP is a second messenger, typically raised through Gs and lowered through Gi signalling.)
For the molecule `COCCOCC(C)(C)c1cc(NC(=O)c2ccc(N3CC(F)(F)C3)c(OCC3CC3)n2)on1` [Example 16, 6-(Cyclopropylmethoxy)-5-(3,3-difluoroazetidin-1-yl)-N-[3-[1-(2-methoxyethoxy)-2-methylpropan-2-yl]-1,2-oxazol-5-yl]pyridine-2-carboxamide], the pEC50 was 6.66.
Consider `COCCOCC(C)(C)c1cc(NC(=O)c2ccc(C3CC3)c(OCC3CC3)n2)on1` [Example 18, 5-Cyclopropyl-6-(cyclopropylmethoxy)-N-[3-[1-(2-methoxyethoxy)-2-methylpropan-2-yl]-1,2-oxazol-5-yl]pyridine-2-carboxamide], for which the pEC50 is 7.45.
In turn, `CCOCCOCC(C)(C)c1cc(NC(=O)c2ccc(C3CC3)c(OCC3CC3)n2)on1` [Example 20, 5-Cyclopropyl-6-(cyclopropylmethoxy)-N-[3-[1-(2-ethoxyethoxy)-2-methylpropan-2-yl]-1,2-oxazol-5-yl]pyridine-2-carboxamide] had a pEC50 of 7.65.
On the same count and under the same terms, then `CC(C)(CO)c1cc(NC(=O)c2ccc(C3CC3)c(OCC3CC3)n2)on1` [Example 19, 5-Cyclopropyl-6-(cyclopropylmethoxy)-N-[3-(1-hydroxy-2-methylpropan-2-yl)-1,2-oxazol-5-yl]pyridine-2-carboxamide], with 6.86.
`NC(=O)[C@H]1CSCCN1C(=O)c1cnc(C2CC2)c(OCC2CC2)n1` [Example 23, (+)-4-[5-Cyclopropyl-6-(cyclopropylmethoxy)pyrazine-2-carbonyl]thiomorpholine-3-carboxamide] showed a pEC50 of 6.23.
On to `CC(C)(C)OC(=O)N1CCOC(CNC(=O)c2ccc(C3CC3)c(Cc3ccc(F)cc3)n2)C1` (stereo not shown) [Example 22, tert-Butyl 2-[[[5-cyclopropyl-6-[(4-fluorophenyl)methyl]pyridine-2-carbonyl]amino]methyl]morpholine-4-carboxylate], for which the pEC50 was 7.00.
Regarding `CC(C)(CO)n1cc(NC(=O)c2ccc(C3CC3)c(OCC3CC3)n2)cn1` [Example 17, 5-Cyclopropyl-6-(cyclopropylmethoxy)-N-[1-(1-hydroxy-2-methylpropan-2-yl)pyrazol-4-yl]pyridine-2-carboxamide], the pEC50 is 6.65.
As to `CC(C)(Cc1nnc(-c2ccccc2)o1)NC(=O)c1ccc(Nc2ccc(Cl)cc2Cl)c(Cl)n1` [Example 9, 6-Chloro-5-(2,4-dichloroanilino)-N-[2-methyl-1-(5-phenyl-1,3,4-oxadiazol-2-yl)propan-2-yl]pyridine-2-carboxamide], the pEC50 was 7.44.
Turning to `CC(C)(Cc1nnc(C2CC2)o1)NC(=O)c1cccc(-c2ccc(Cl)cc2)n1` [Example 1, 6-(4-Chlorophenyl)-N-[1-(5-cyclopropyl-1,3,4-oxadiazol-2-yl)-2-methylpropan-2-yl]pyridine-2-carboxamide], the negative-log EC50 (pEC50) was 6.30.
Same read-out and setting: the value for `CC(C)(Cc1nnc(-c2ccccc2)o1)NC(=O)c1cccc(-c2cccc(Cl)c2)n1` [Example 6, 6-(3-Chlorophenyl)-N-[2-methyl-1-(5-phenyl-1,3,4-oxadiazol-2-yl)propan-2-yl]pyridine-2-carboxamide] was 6.74; that for `CC(C)(NC(=O)c1cccc(-c2ccc(Cl)cc2Cl)n1)c1nnc(-c2ccccc2)o1` [Example 14, 6-(2,4-Dichlorophenyl)-N-[2-(5-phenyl-1,3,4-oxadiazol-2-yl)propan-2-yl]pyridine-2-carboxamide] was 6.64.

The assay is the same for the next values; noted with them: CHO cells expressing human CB2 receptors; read-out: cAMP assay human CB2 EC50.
As to `CC(C)(Cc1nnc(-c2ccc(F)cc2)o1)NC(=O)c1ccc(N2CC(F)(F)C2)c(OCC2CC2)n1` [Example 27, 6-(Cyclopropylmethoxy)-5-(3,3-difluoroazetidin-1-yl)-N-[1-[5-(4-fluorophenyl)-1,3,4-oxadiazol-2-yl]-2-methylpropan-2-yl]pyridine-2-carboxamide], the pEC50 is 5.54.
Still for that read-out and setting: then `CC(C)(Cc1nc(-c2ccccc2)no1)NC(=O)c1cccc(-c2cccc(Cl)c2)n1` [Example 8, 6-(3-Chlorophenyl)-N-[2-methyl-1-(3-phenyl-1,2,4-oxadiazol-5-yl)propan-2-yl]pyridine-2-carboxamide], with 6.71.
